Results as given in paper PMC3914206.

Key:
Format in all cases: binding
panel of 442 kinases [1] = target: T1, panel of 442 kinases (Homo sapiens, UniProt P07949, V804L); settings: Compound Concentration 10 µM
T1 construct: purchased KINOMEscan
Source text: (§1) We assessed the selectivity of members of this scaffold using the KINOMEscan methodology across a near comprehensive panel of 442 kinases [[18,27]].

panel of 442 kinases [2] = target: T2, panel of 442 kinases (Homo sapiens, UniProt P36888, K663Q); settings: Compound Concentration 10 µM
T2 construct: purchased KINOMEscan
T2 sequence (P36888 27-993 K663Q): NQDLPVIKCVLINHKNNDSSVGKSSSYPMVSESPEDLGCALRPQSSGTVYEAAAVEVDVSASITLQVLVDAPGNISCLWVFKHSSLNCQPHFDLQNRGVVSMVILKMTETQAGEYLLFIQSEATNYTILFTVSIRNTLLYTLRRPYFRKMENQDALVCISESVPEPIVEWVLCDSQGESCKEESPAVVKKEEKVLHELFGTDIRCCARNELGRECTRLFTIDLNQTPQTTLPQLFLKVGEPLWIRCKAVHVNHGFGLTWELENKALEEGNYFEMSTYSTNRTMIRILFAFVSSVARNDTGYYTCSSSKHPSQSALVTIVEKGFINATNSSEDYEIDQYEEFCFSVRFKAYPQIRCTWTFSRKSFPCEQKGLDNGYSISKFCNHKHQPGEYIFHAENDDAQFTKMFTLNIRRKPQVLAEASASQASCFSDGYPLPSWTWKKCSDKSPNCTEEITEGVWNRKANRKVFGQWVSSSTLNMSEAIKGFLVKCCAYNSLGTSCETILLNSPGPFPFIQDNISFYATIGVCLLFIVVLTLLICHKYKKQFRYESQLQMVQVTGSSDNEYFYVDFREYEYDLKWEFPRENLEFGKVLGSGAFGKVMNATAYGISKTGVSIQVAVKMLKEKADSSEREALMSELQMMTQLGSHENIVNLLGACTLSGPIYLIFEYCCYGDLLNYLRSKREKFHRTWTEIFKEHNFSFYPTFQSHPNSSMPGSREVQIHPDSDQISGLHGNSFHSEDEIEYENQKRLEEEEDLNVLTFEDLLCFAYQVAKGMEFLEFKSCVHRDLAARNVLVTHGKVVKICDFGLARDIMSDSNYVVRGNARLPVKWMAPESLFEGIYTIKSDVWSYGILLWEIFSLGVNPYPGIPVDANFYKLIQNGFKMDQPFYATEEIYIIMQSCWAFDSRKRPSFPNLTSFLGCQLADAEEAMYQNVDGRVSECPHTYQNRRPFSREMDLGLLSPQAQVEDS
Source text: as §1

panel of 442 kinases [3] = target: T3, panel of 442 kinases (Homo sapiens, UniProt Q8WU08); settings: kinase YANK1; compound concentration 10 µM
T3 construct: purchased KINOMEscan
Source text: as §1

T1 sequence (P07949 29-1114 V804L): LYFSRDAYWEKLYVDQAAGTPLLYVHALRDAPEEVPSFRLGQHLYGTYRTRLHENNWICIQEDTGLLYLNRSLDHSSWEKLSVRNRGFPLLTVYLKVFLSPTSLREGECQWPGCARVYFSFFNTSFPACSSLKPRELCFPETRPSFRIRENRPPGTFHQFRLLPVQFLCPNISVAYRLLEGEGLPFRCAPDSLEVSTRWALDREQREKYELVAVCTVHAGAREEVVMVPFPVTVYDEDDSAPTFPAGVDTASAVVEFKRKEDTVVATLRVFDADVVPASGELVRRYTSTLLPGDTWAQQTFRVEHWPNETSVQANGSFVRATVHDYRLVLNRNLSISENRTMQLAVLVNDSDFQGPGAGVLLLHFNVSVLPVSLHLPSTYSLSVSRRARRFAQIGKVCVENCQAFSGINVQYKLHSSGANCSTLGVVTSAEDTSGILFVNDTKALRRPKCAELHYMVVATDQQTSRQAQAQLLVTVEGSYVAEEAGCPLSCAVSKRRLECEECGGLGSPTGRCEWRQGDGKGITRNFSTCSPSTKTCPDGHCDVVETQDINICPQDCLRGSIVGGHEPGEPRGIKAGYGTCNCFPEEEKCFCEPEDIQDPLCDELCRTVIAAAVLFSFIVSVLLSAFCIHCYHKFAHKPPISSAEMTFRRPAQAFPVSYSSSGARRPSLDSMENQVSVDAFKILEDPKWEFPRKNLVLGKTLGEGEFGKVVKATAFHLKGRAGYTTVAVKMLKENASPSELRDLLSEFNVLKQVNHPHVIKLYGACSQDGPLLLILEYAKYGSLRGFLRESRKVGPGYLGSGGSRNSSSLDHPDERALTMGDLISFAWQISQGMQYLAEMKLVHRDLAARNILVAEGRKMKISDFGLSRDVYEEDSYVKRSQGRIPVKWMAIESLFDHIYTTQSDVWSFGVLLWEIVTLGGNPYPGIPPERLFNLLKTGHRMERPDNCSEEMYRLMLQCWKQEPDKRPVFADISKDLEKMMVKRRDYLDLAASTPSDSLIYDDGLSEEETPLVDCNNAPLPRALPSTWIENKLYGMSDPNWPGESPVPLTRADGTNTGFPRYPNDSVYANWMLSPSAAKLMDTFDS
T3 sequence (Q8WU08 whole entry): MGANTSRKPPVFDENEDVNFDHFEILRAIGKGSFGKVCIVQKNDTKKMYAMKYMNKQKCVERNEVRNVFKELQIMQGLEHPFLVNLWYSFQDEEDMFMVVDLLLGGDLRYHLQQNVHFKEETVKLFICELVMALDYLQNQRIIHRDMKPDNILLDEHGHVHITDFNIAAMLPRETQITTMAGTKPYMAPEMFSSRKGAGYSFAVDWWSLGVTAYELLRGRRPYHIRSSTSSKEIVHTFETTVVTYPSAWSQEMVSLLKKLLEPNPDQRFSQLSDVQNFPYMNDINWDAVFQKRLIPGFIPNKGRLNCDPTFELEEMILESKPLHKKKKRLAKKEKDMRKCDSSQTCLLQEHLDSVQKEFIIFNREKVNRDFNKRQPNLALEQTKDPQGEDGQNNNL

SMILES	KINOMEscan: RET(V804L) (panel of 442 kinases [1])	KINOMEscan: FLT3(K663Q) (panel of 442 kinases [2])	% Ctrl, YANK1 (panel of 442 kinases [3])
COc1cc(C(=O)N2CCC(N3CCN(C)CC3)CC2)ccc1Nc1ncc2c(n1)N(C)c1ccccc1C(=O)N2C [15 (LRRK2-IN-1)]	89	97	100 % Ctrl
COc1cc(C(=O)N2CCC(N3CCN(C)CC3)CC2)ccc1Nc1ncc2c(n1)N1CCc3cccc(c31)C(=O)N2C [Compound 24]	77	100	100 % Ctrl
COc1cc(C(=O)N2CCC(N3CCN(C)CC3)CC2)ccc1Nc1ncc2c(n1)N(C1CCCC1)c1ccccc1C(=O)N2C [Compound 25, 11-cyclopentyl-2-((2-methoxy-4-(4-(4-methylpiperazin-1-yl)piperidine-1-carbonyl)phenyl)amino)-5-methyl-5H-benzo[e]pyrimido[5,4-b][1,4]diazepin-6(11H)-one]	100	100	100 % Ctrl
CCOc1cc(C(=O)N2CCC(N3CCN(C)CC3)CC2)ccc1Nc1ncc2c(n1)N(C1CCCC1)c1ccccc1C(=O)N2C [Compound 26]	100	100	100 % Ctrl
